{
  "source": "paper PMC8147293",
  "about": "“Library of Selenocyanate and Diselenide Derivatives as In Vivo Antichagasic Compounds Targeting Trypanosoma cruzi Mitochondrion” (Pharmaceuticals, 2021)",
  "key": {"[1]": {"system": "epimastigotes of T. cruzi Arequipa strain", "test": "Screening against extracellular epimastigotes (resazurin)", "type": "cell-based, Trypanosoma cruzi", "settings": "for IC50: Trypanosoma cruzi"}, "Mammalian Vero cells": {"system": "Mammalian Vero cells", "test": "Cytotoxicity test on Vero cells (resazurin)", "type": "cell-based", "settings": "Chlorocebus sabaeus, 72 h; Table 1; Vero cells, 48 h + 24 h resazurin; read-out: Toxicity IC50 Vero Cell"}, "[2]": {"system": "Trypanosoma cruzi intracellular amastigotes", "test": "Screening against intracellular amastigotes in Vero cells (Giemsa counting)", "type": "cell-based", "method": "(§1) Trypanocidal activity against amastigotes was determined according to the literature reported previously. […]. […] Each compound concentration was tested in triplicate in four separate determinations."}, "[3]": {"system": "Trypanosoma cruzi amastigotes in Vero cells", "test": "Infection rate and amastigotes per Vero cell over 10 days", "type": "cell-based", "settings": "IC25 concentrations, measured at 2 days intervals for 10 days", "method": "Before going ahead on in vivo trials, the in vitro infection rate and the average number of amastigotes per Vero cell were also measured at 2 days intervals for 10 days after treating the infected cultures with BZN and potential candidates (8, 10, and 15) (Figure 1) at ICH25 concentrations resulting from amastigotes screening. […]. Fast-acting drugs are urgently needed, and this feature is an additional advantage since they can eliminate the parasite in a few doses.\nas §1\nFigure 1 (A) Percentage of infected Vero cells and (B) number of amastigotes of Trypanosoma cruzi per Vero cell exposed to benznidazole (BZN), 8, 10 and 15. Values constitute means of three separate determinations ± standard deviation. * Significant differences between untreated and treated parasites for α = 0.05. dpi, days post-infection."}, "Trypanosoma cruzi [4]": {"system": "Trypanosoma cruzi", "test": "Parasitemia monitoring in infected BALB/c mice, acute Chagas disease", "type": "in vivo", "settings": "oral 20 mg/kg per day for 5 days from 9th dpi, versus untreated", "method": "(§2) Infection was carried out by intraperitoneal inoculation of 5 × 10^5 BTs of T. cruzi per mouse in 0.2 mL PBS [56]. The mice were treated by oral route (~200 µL) once daily for 5 consecutive days. The treatment for mice treated in the acute and chronic phases began when the infection was confirmed (9th day post-infection (dpi)) and was established that the animals had entered the chronic phase (100th dpi), respectively.\n(§3) The mice were divided into six groups (n = 3 per group): 0, negative control group (uninfected and untreated mice); I, positive control group (infected and untreated mice); II, BZN group (mice infected and treated with BZN); III, 8 group (mice infected and treated with 8); IV, 10 group (mice infected and treated with 10); V, 15 group (mice infected and treated with 15). The tested compounds and BZN were prepared at 2 mg·mL^−1 in an aqueous suspension vehicle containing 5% (v/v) DMSO and 0.5% (w/v) hydroxypropyl methylcellulose, as previously reported. Therefore, doses of 20 mg·kg^−1 per day were administered for 5 consecutive days, and vehicle only was administered in the negative and positive control groups.\n(§4) All in vivo assays for the evaluation of compounds in the acute and chronic CD (Scheme 1)—monitoring of parasitemia, immunosuppression, PCR [59, 60], ELISA [56], and clinical analysis [56]—were performed as previously described. PCR was based on the Spliced Leader (SL) intergenic region sequence of T. cruzi (for detailed description, see literature reported previously)."}, "Trypanosoma cruzi [5]": {"system": "Trypanosoma cruzi", "test": "Parasitemia reactivation after immunosuppression in BALB/c mice", "type": "in vivo", "settings": "20 mg/kg per day for 5 days, compared to untreated mice", "method": "Secondly, the experimental cure was determined using a double checking widely used in in vivo trypanocidal trials. This double checking—based on immunosuppression and PCR (Figure 2B,C, respectively)—was performed to evaluate the treatment effectiveness and the disease extent in both acute and chronic CD at the end of the in vivo timeline. The mice whose parasitemia and PCR remain negative after immunosuppression are considered cured.\nImmunosuppression enhances the reactivation of any residual infection, which is proportional to the parasite survival rate.\nas §2, §3, §4"}, "Trypanosoma cruzi [6]": {"system": "Trypanosoma cruzi", "test": "Anti-T. cruzi IgG (ELISA) and splenomegaly in treated BALB/c mice", "type": "in vivo", "method": "Otherwise, the immune status of the mice was evaluated—through the titer of total anti-T. cruzi IgG and the splenomegaly (Figure S1)—since it is a characteristic linked to the parasite load and the effectiveness ascribed to the potential candidates. […].\nas §4\nFigure S1. A) Anti-Trypanosoma cruzi immunoglobulin G levels, expressed in absorbance at 492 nm, at different days post-infection (dpi) for each group of mice treated during the acute and chronic phases of Chagas disease: control (untreated), benznidazole (BZN), 8, 10 and 15. Blank and uninfected mice are also […]\nincluded. […] Values are the means of three mice ± standard deviation. (IS) immunosuppression. * Significant differences between untreated and treated mice for α =\n0.05. B) Weight percentage of spleens in the chronic Chagas disease for each group of mice treated during the acute and chronic phases of the disease: control (untreated), benznidazole (BZN), 8, 10 and 15. Values are the means of three mice ± standard deviation. In brackets: reduction of splenomegaly in comparison to […]\n(1 picture or pasted object on this page, not shown here)"}, "[7]": {"system": "epimastigotes of T. cruzi Arequipa", "test": "1H NMR analysis of excreted metabolites", "type": "cell-based, Trypanosoma cruzi", "settings": "IC25 concentrations, 72 h", "method": "5 × 10^5 epimastigotes·mL^−1 of T. cruzi Arequipa were treated by adding the tested compounds at IC25 concentrations in 25 cm^2 cell culture flasks at 28 °C for 72 h. Untreated controls were also included. Cultures were then centrifuged and filtered, and the metabolites of the supernatants were analyzed using a ^1H NMR spectrometer (VARIAN DIRECT DRIVE 500 MHz […]) with AutoX probe, D2O as solvent and 2,2-dimethyl-2-silapentane-5-sulphonate as the reference signal. Chemical shifts were expressed in parts per million (ppm), and analyses were conducted as previously reported."}},
  "note": "Like-named read-outs stand apart in the source and are kept apart here.",
  "data": [
    {"smiles": "FC(F)(F)c1ccc(C[Se][Se]Cc2ccc(C(F)(F)F)cc2)cc1", "note": "[compound 8]", "values": [
      {"measurement": "Selectivity Index Epimast.", "setting": "[1]; IC50 Vero cells/IC50 epimastigotes", "value": 23},
      {"measurement": "IC50", "setting": "[1]; Table 1, T. cruzi epimastigotes, 48 h treatment + 24 h resazurin, read-out: Activity IC50 Epimast.", "value": "1900 ± 100", "unit": "nM"},
      {"measurement": "IC50", "setting": "[1]; Table S1, cultured epimastigote form of T. cruzi, read-out: Activity IC50", "value": "≤ 10000", "unit": "nM"},
      {"measurement": "CC50", "setting": "Mammalian Vero cells", "value": "44300 ± 2700", "unit": "nM"},
      {"measurement": "Selectivity Index Amast.", "setting": "[2]; IC50 Vero cells/IC50 amastigotes", "value": 55},
      {"measurement": "IC50", "setting": "[2]; Trypanosoma cruzi, Table 1, intracellular amastigotes in Vero cells, 72 h, read-out: Activity IC50 Amast.", "value": "800 ± 200", "unit": "nM"},
      {"measurement": "infection rate and average number of amastigotes per Vero cell", "setting": "[3]", "value": "decrease in both infection rate and number of amastigotes per cell in a time-dependent manner"},
      {"measurement": "parasitemia levels (counting BTs) during the acute CD", "setting": "Trypanosoma cruzi [4]", "value": "trypanocidal activity was even stronger"},
      {"measurement": "reactivation of infection after immunosuppression", "setting": "Trypanosoma cruzi [5]; mice treated in acute CD", "value": 67, "unit": "%"},
      {"measurement": "reactivation of infection after immunosuppression", "setting": "Trypanosoma cruzi [5]; mice treated in chronic CD", "value": 44, "unit": "%"},
      {"measurement": "IgG levels in the acute treatment", "setting": "Trypanosoma cruzi [6]; from the beginning to the end of the in vivo timeline", "value": "very low IgG levels"},
      {"measurement": "total anti-T. cruzi IgG levels and splenomegaly", "setting": "Trypanosoma cruzi [6]; treated BALB/c mice versus untreated, excluding IgG levels of chronic CD", "value": "significant reduction"},
      {"measurement": "variation of excreted metabolites versus untreated parasites", "setting": "[7]", "value": "< 10", "unit": "%"}
    ]}
  ]
}
